For series [1], the system named is mouse. As to conditions: Multigenerational reproductive toxicity study, cd1, Oral, Feed, dose end: 2 generation, group: offspring.
In series [2] the test system is rat. As to conditions: Subchronic oral toxicity in rodents, sprague dawley, Feed, dose end: 13 week, group: systemic, systemic / clinical chemistry / calcium / calcium + systemic / pathology microscopic / liver / accentuated lobular pattern + systemic / ….
Series [3] relates to rat. As to conditions: Subchronic inhalation toxicity, long evans, Whole-Body, dose end: 58 day, group: systemic, systemic / in life observation / clinical signs / abnormal movements.
Series [4] concerns rat. As to conditions: Subchronic oral toxicity in rodents, long evans, Feed, dose end: 96 day, group: systemic, systemic / in life observation / body weight / body weight gain + systemic / in life observation / food consumption / food efficiency.
The test system of series [5] is mouse. As to conditions: Subchronic oral toxicity in rodents, b6c3f1, Feed, dose end: 13 week, group: systemic, systemic / in life observation / mortality / mortality.
The test system of series [6] is rat. As to conditions: Subchronic oral toxicity in rodents, fischer, Feed, dose end: 13 week, group: systemic, systemic / in life observation / body weight / body weight gain.
The subject of series [7] is mouse. As to conditions: Carcinogenicity; b6c3f1; Oral; Feed; dose end: 103 week; group: systemic; systemic / in life observation / clinical signs / alopecia + systemic / in life observation / clinical signs / aggressive behavior.
The next series has as its system dog. As to conditions: Chronic toxicity; beagle; Oral; Feed; dose end: 12 month; group: systemic; systemic / clinical chemistry / alkaline phosphatase (alp/alk) / alkaline phosphatase (alp/alk) + systemic / in life observation / body ….
The test system of series [8] is mouse. As to conditions: Carcinogenicity, b6c3f1, Oral, Feed, dose end: 112 week, group: systemic.
The subject of series [9] is rat. As to conditions: Combined chronic toxicity/carcinogenicity, sprague dawley, Oral, [Not Specified], dose end: 24 month, group: systemic.
Series [10] relates to mouse. As to conditions: Combined chronic toxicity/carcinogenicity, cd1, Oral, Feed, dose end: 78 week, group: systemic.
Series [11] deals with rat. As to conditions: Carcinogenicity, fischer, Oral, Feed, dose end: 107 week, group: systemic.
The mark [12] stands for this setting: systemic / organ weight / kidney / relative to body weight + systemic / organ weight / liver / relative to body weight + systemic / organ ….
Setting [13] is: systemic / in life observation / body weight / body weight.
The mark [14] stands for this setting: systemic / in life observation / body weight / body weight + systemic / in life observation / clinical signs / alopecia.
Where [15] appears, read: systemic / clinical chemistry / cholesterol / cholesterol + systemic / organ weight / liver / absolute + systemic / organ weight / liver / ….
Where [16] appears, read: systemic / organ weight / liver / relative to body weight.

These results are taken from EPA's ToxRefDB 2.

The structures appear in SMILES notation.

Turning to `CCCCCCCCOC(=O)c1ccccc1C(=O)OCCCCCCCC` [Dioctyl phthalate], in the series on mouse [1] (systemic / organ weight / kidney / relative to body weight + systemic / organ weight / liver / relative to body weight), the NEL was determined as 3600 mg/kg/day. Moreover, in the series on mouse [1] (setting [12]), the LEL amounted to 7500 mg/kg/day, the LOAEL is more than 7500 mg/kg/day and the NOAEL is not below 7500 mg/kg/day. Moreover, in the series on rat [2], the LEL amounted to 350 mg/kg/day, the lowest-observed-adverse-effect level (LOAEL) is more than 350 mg/kg/day, the NEL was determined as 36.8 mg/kg/day and the no observed adverse effect level (NOAEL) is not below 350 mg/kg/day.

Take `COC(=O)c1ccc(C(=O)OC)cc1` [Dimethyl terephthalate]: the LEL in the series on rat [3] was 4 mg/kg/day; in the series on rat [4], 500 mg/kg/day; in the series on mouse [5] it was 375 mg/kg/day; in the series on rat [6] it was 500 mg/kg/day; with mouse [7] it was 375 mg/kg/day. Moreover, the lowest-observed-adverse-effect level (LOAEL) in the series with rat [3] was more than 4 mg/kg/day; with rat [4], more than 500 mg/kg/day; in the series on mouse [5], more than 3000 mg/kg/day; in the series with rat [6] it was 500 mg/kg/day; in the series with mouse [7] it was more than 750 mg/kg/day. Moreover, the NEL was 0.7 mg/kg/day in the series with rat [3]; 250 mg/kg/day with rat [4]; 262 mg/kg/day in the series with mouse [5]; 250 mg/kg/day in the series on rat [6]; less than 375 mg/kg/day in the series with mouse [7]. The NOAEL with rat [3] is not below 4 mg/kg/day; in the series on rat [4], not below 500 mg/kg/day; with mouse [5], not below 3000 mg/kg/day; in the series with rat [6] it was 250 mg/kg/day; in the series with mouse [7], not below 750 mg/kg/day.

For the compound `CCCCOCCOCCOCc1cc2c(cc1CCC)OCO2` [Piperonyl butoxide], the LEL is 15.5 mg/kg/day in the series with dog; 155 mg/kg/day in the series on mouse [8] (setting [14]); 30 mg/kg/day in the series with rat [9] (systemic / organ weight / liver / absolute + systemic / organ weight / liver / relative to brain weight + systemic / pathology gross / …); 30 mg/kg/day in the series with mouse [10] (setting [16]); 250 mg/kg/day in the series on rat [11] (setting [13]). Also, the LOAEL in the series with dog stood at 15.5 mg/kg/day; in the series with mouse [8] (setting [13]) it was 155 mg/kg/day; in the series with rat [9] (setting [15]), 100 mg/kg/day; in the series with mouse [10] (systemic / organ weight / liver / relative to body weight + systemic / pathology microscopic / liver / hypertrophy), 100 mg/kg/day; in the series on rat [11] (setting [13]), 500 mg/kg/day. In addition, the NEL was 2.9 mg/kg/day in the series on dog; less than 155 mg/kg/day with mouse [8] (setting [14]); 15 mg/kg/day in the series with rat [9] (setting [15]); less than 30 mg/kg/day in the series on mouse [10] (setting [16]); less than 250 mg/kg/day in the series with rat [11] (setting [13]). Moreover, the NOAEL was 2.9 mg/kg/day in the series on dog; less than 155 mg/kg/day in the series with mouse [8] (setting [13]); 30 mg/kg/day in the series on rat [9] (setting [15]); 30 mg/kg/day in the series with mouse [10] (systemic / organ weight / liver / relative to body weight + systemic / pathology microscopic / liver / adenoma); 250 mg/kg/day in the series with rat [11] (systemic / in life observation / body weight / body weight + systemic / pathology gross / full gross necropsy / lymphoma nos).

For orientation: LOAEL means the lowest dose or exposure tested at which an adverse effect was seen. As a reminder, the NOAEL is the highest dose or exposure tested at which no adverse effect was seen.
